According to US20210137854A1, “TAAR Receptor Agonists for the Treatment of Alopecia” (APPLIED BIOLOGY, INC., priority 2018, published 2021):

What was measured:
Type in all cases: in vivo, human
[1] = system: scalp hair follicles; test: Hair shedding during brushing after topical solution versus placebo
Text: Participants included in the study were female subjects between ages of 18 and 60 who frequently use traumatic hair care practices, such as tight braids, head scarves, ponytails, extensions, hair rollers, hair weaves and heated styling appliances such as blow dryers, flat irons, heat setters and curling irons. Excluded subjects were those who experienced uncontrolled hypertension, those who were pregnant or breastfeeding, those who were diagnosed with pattern hair loss, or those who experienced other hair loss in conjunction with female pattern hair loss. Overall, fifteen female subjects, aged 24 to 40 years, participated in the study.
On day 1, subjects were instructed to wash their hair. On day 2, subjects were instructed to apply 1 mL of placebo solution containing vehicle and brush targeted area after 30 minutes. Brushing was conducted to frontal hair with regular brush in size of 8×10 cm^2. On day 3, subjects were instructed again to wash their hair. On day 4, subjects were instructed to apply 1 mL of 10% m-octopamine hydrochloride solution on targeted area and brush after 30 minutes.
The study was conducted over 4 days. On day 1, subjects were instructed to wash their hair. […]
Hair Shedding: To measure hair loss during cosmetic procedures, a 4-day protocol was designed. […] After each clinical procedure, the investigator counted the hairs collected on each brush. […]

[2] = system: scalp hair follicles; test: Epilation force threshold for plucking scalp hair (trichotillometer)
Procedure: To evaluate the effect of a topically applied TAAR agonist combination on the force required to pluck hairs from the scalp, a hand-held spring dynamometer, or “trichotillometer” was used. The trichotillometer records the maximum force threshold, in grams, required to pluck a single hair from the scalp; the performance and statistical variance of the instrument have been reported previously. […] The frontal area of scalp was divided into two 8×10 cm^2 areas. On the right side 0.5 mL of a placebo vehicle was applied. On the left side, 0.5 mL a 12% tyramine solution was applied. After 45 minutes, ten hairs were plucked from each of the target areas with the trichotillometer.

[3] = Cardiac or hemodynamic changes during topical α1-AR agonist studies; conditions: subjects sampled during both studies
Text: It is recognized that […] of the α1 adrenergic receptor (α1-AR), a G-protein coupled receptor, expressed on the arrector pili muscle.

SMILES: CNC[C@H](O)c1cccc(O)c1 [phenylephrine]
- subjects with reduced shedding compared to days using placebo solution ([1]; Examples 7 and 9, blinded study, female subjects ages 18-40): 80%
- reduction in hairs lost (shedding) during brushing ([1]; earlier studies of the inventors, phenylephrine 15 female subjects, AB-102 cohort of 40 women): 40%
- increase in epilatory force threshold for plucking hair follicles ([2]; following topical application, Examples 5 and 6, FIGS. 4-5): 172%
- increase in average threshold of force required to pluck hair ([2]; pilot study of 15 female subjects): 172%
- cardiac or hemodynamic changes [3]: no cardiac or hemodynamic changes were observed
